Test results as given in ChEMBL document CHEMBL1133206, “Antifungal rapamycin analogues with reduced immunosuppressive activity” (Bioorg Med Chem Lett, 2000).
Values after ≈ are worked out from the molar mass of the structure shown.

How the values were obtained:
Candida tropicalis = experiment: In vitro antifungal activity against Candida tropicalis (CT 750); assay type: functional
Aspergillus niger = experiment: In vitro antifungal activity at a minimum inhibitory concentration (~100 ug/mL) against Aspergillus niger; Not affected; assay type: functional
Candida albicans [1] = experiment: In vitro for antifungal activity against Candida albicans (CA 579a); assay type: functional
Homo sapiens = organism: Homo sapiens; experiment: Inhibitory activity against human concanavalin-A proliferation assay; assay type: functional
Candida albicans [2] = experiment: In vitro antifungal activity against Candida albicans (CA 62376); Weak; assay type: functional, organism-based
Candida albicans [3] = experiment: In vitro antifungal activity against Candida albicans (CA 38247); Weak; assay type: functional, organism-based
Candida albicans [4] = experiment: In vitro antifungal activity against […] (CA 34140); Not affected.; assay type: functional
Candida albicans [5] = experiment: In vitro antifungal activity against Candida albicans (CA 10231); assay type: functional
Nakaseomyces glabratus = experiment: In vitro antifungal activity against Torulopsis glabrata (TG 15545); assay type: functional
Pichia kudriavzevii = experiment: In vitro antifungal activity against Candida krusei (CK 28838); assay type: functional
Candida albicans [6] = experiment: In vitro antifungal activity against Candida albicans (CA 442); Weak; assay type: functional, organism-based
[7] = Aspergillus niger, read-out: MIC

SMILES	MIC (Candida tropicalis)	MIC (Aspergillus niger; [7])	MIC (Candida albicans [1])	MIC (Candida albicans [2])	MIC (Candida albicans [3])	MIC (Candida albicans [4])	MIC (Candida albicans [5])	MIC (Nakaseomyces glabratus)	MIC (Pichia kudriavzevii)	MIC (Candida albicans [6])	MIC (Aspergillus niger)	IC50 (Homo sapiens)
CO[C@@H]1C[C@H](C[C@@H](C)[C@@H]2CC(=O)[C@H](C)/C=C(\C)[C@@H](O)[C@@H](OC)C(=O)[C@H](C)C[C@H](C)/C=C/C=C/C=C(\C)[C@H](N(O)C(=O)N(C)C)C[C@@H]3CC[C@@H](C)[C@@](O)(O3)C(=O)C(=O)N3CCCC[C@H]3C(=O)O2)CC[C@H]1O	50 µg/mL (≈ 50.7 µM)	~100 µg/mL (≈ 101 µM)	100 µg/mL (≈ 101 µM)	Weak	Weak	~100 µg/mL (≈ 101 µM)	100 µg/mL (≈ 101 µM)	3.12 µg/mL (≈ 3.16 µM)		Weak		2030 nM
CO[C@H]1C[C@@H]2CC[C@@H](C)[C@@](O)(O2)C(=O)C(=O)N2CCCC[C@H]2C(=O)O[C@H]([C@H](C)C[C@@H]2CC[C@@H](OC(=O)N(C)C)[C@H](OC)C2)CC(=O)[C@H](C)/C=C(\C)[C@@H](O)[C@@H](OC)C(=O)[C@H](C)C[C@H](C)CCCC/C=C/1C	> 100 µg/mL		50 µg/mL (≈ 50.5 µM)				50 µg/mL (≈ 50.5 µM)		6.25 µg/mL (≈ 6.32 µM)			485 nM
CO[C@@H]1C[C@H](C[C@@H](C)[C@@H]2CC(=O)[C@H](C)/C=C(\C)[C@@H](O)[C@@H](OC)C(=O)[C@H](C)C[C@H](C)/C=C/C=C/C=C(\C)[C@H](N(OC)C(=O)N(C)C)C[C@@H]3CC[C@@H](C)[C@@](O)(O3)C(=O)C(=O)N3CCCC[C@H]3C(=O)O2)CC[C@H]1O	50 µg/mL (≈ 50 µM)	~100 µg/mL (≈ 100 µM)	50 µg/mL (≈ 50 µM)	Weak	Weak	~100 µg/mL (≈ 100 µM)	50 µg/mL (≈ 50 µM)	1.56 µg/mL (≈ 1.56 µM)	1.56 µg/mL (≈ 1.56 µM)	Weak		6.5 nM
CO[C@@H]1C[C@H](C[C@@H](C)[C@@H]2CC(=O)[C@H](C)/C=C(\C)[C@@H](O)[C@@H](OC)C(=O)[C@H](C)C[C@H](C)/C=C/C=C/C=C(\C)[C@@H](N(O)C(N)=O)C[C@@H]3CC[C@@H](C)[C@@](O)(O3)C(=O)C(=O)N3CCCC[C@H]3C(=O)O2)CC[C@H]1O	12.5 µg/mL (≈ 13 µM)	~100 µg/mL (≈ 104 µM)	100 µg/mL (≈ 104 µM)	Weak	Weak	~100 µg/mL (≈ 104 µM)	100 µg/mL (≈ 104 µM)	1.56 µg/mL (≈ 1.63 µM)	3.12 µg/mL (≈ 3.26 µM)	Weak		758 nM
CO[C@@H]1C[C@H](C[C@@H](C)[C@@H]2CC(=O)[C@H](C)/C=C(\C)[C@@H](O)[C@@H](OC)C(=O)[C@H](C)C[C@H](C)/C=C/C=C/C=C(\C)[C@H](N(O)C(=O)OC(C)C)C[C@@H]3CC[C@@H](C)[C@@](O)(O3)C(=O)C(=O)N3CCCC[C@H]3C(=O)O2)CC[C@H]1O	25 µg/mL (≈ 25 µM)	~100 µg/mL (≈ 99.9 µM)	12.5 µg/mL (≈ 12.5 µM)	Weak	Weak	~100 µg/mL (≈ 99.9 µM)	6.25 µg/mL (≈ 6.24 µM)	0.78 µg/mL (≈ 0.779 µM)	0.78 µg/mL (≈ 0.779 µM)	Weak		220 nM
COC(=O)N(O)[C@H]1C[C@@H]2CC[C@@H](C)[C@@](O)(O2)C(=O)C(=O)N2CCCC[C@H]2C(=O)O[C@H]([C@H](C)C[C@@H]2CC[C@@H](O)[C@H](OC)C2)CC(=O)[C@H](C)/C=C(\C)[C@@H](O)[C@@H](OC)C(=O)[C@H](C)C[C@H](C)/C=C/C=C/C=C/1C	25 µg/mL (≈ 25.7 µM)	~100 µg/mL (≈ 103 µM)	50 µg/mL (≈ 51.4 µM)	Weak	Weak	~100 µg/mL (≈ 103 µM)	25 µg/mL (≈ 25.7 µM)	1.56 µg/mL (≈ 1.6 µM)	1.56 µg/mL (≈ 1.6 µM)	Weak		1.47 nM
CO[C@@H]1C[C@H](C[C@@H](C)[C@@H]2CC(=O)[C@H](C)/C=C(\C)[C@@H](O)[C@@H](OC)C(=O)[C@H](C)C[C@H](C)/C=C/C=C/C=C(\C)[C@@H](N(O)C(=O)N3CCOCC3)C[C@@H]3CC[C@@H](C)[C@@](O)(O3)C(=O)C(=O)N3CCCC[C@H]3C(=O)O2)CC[C@H]1O	25 µg/mL (≈ 24.3 µM)	~100 µg/mL (≈ 97.2 µM)	50 µg/mL (≈ 48.6 µM)	Weak	Weak	~100 µg/mL (≈ 97.2 µM)	25 µg/mL (≈ 24.3 µM)	3.12 µg/mL (≈ 3.03 µM)	6.25 µg/mL (≈ 6.08 µM)	Weak		1620 nM
CO[C@H]1C[C@@H]2CC[C@@H](C)[C@@](O)(O2)C(=O)C(=O)N2CCCC[C@H]2C(=O)O[C@H]([C@H](C)C[C@@H]2CC[C@@H](OC(=O)N(C)O)[C@H](OC)C2)CC(=O)[C@H](C)/C=C(\C)[C@@H](O)[C@@H](OC)C(=O)[C@H](C)C[C@H](C)CCCC/C=C/1C	3.12 µg/mL (≈ 3.15 µM)		3.12 µg/mL (≈ 3.15 µM)				3.12 µg/mL (≈ 3.15 µM)		1.56 µg/mL (≈ 1.57 µM)			434 nM
CO[C@@H]1C[C@H](C[C@@H](C)[C@@H]2CC(=O)[C@H](C)/C=C(\C)[C@@H](O)[C@@H](OC)C(=O)[C@H](C)C[C@H](C)/C=C/C=C/C=C(\C)[C@@H](N(O)C(=O)N(C)C)C[C@@H]3CC[C@@H](C)[C@@](O)(O3)C(=O)C(=O)N3CCCC[C@H]3C(=O)O2)CC[C@H]1O	50 µg/mL (≈ 50.7 µM)	~100 µg/mL (≈ 101 µM)	100 µg/mL (≈ 101 µM)	Weak	Weak	~100 µg/mL (≈ 101 µM)	100 µg/mL (≈ 101 µM)	3.12 µg/mL (≈ 3.16 µM)		Weak		2030 nM

More lines, in order of falling MIC (Candida tropicalis), values ahead:

MIC (Candida tropicalis)	MIC (Aspergillus niger; [7])	MIC (Candida albicans [1])	MIC (Candida albicans [2])	MIC (Candida albicans [3])	MIC (Candida albicans [4])	MIC (Candida albicans [5])	MIC (Nakaseomyces glabratus)	MIC (Pichia kudriavzevii)	MIC (Candida albicans [6])	MIC (Aspergillus niger)	SMILES	IC50 (Homo sapiens)
3.12 µg/mL (≈ 3.21 µM)	~100 µg/mL (≈ 103 µM)	6.25 µg/mL (≈ 6.42 µM)	Weak	Weak	~100 µg/mL (≈ 103 µM)	3.12 µg/mL (≈ 3.21 µM)	0.78 µg/mL (≈ 0.801 µM)	0.39 µg/mL (≈ 0.401 µM)	Weak		COC(=O)N(O)[C@@H]1C[C@@H]2CC[C@@H](C)[C@@](O)(O2)C(=O)C(=O)N2CCCC[C@H]2C(=O)O[C@H]([C@H](C)C[C@@H]2CC[C@@H](O)[C@H](OC)C2)CC(=O)[C@H](C)/C=C(\C)[C@@H](O)[C@@H](OC)C(=O)[C@H](C)C[C@H](C)/C=C/C=C/C=C/1C	16 nM
3.12 µg/mL (≈ 3.26 µM)	~100 µg/mL (≈ 104 µM)	25 µg/mL (≈ 26.1 µM)	Weak	Weak	~100 µg/mL (≈ 104 µM)	12.5 µg/mL (≈ 13 µM)	1.56 µg/mL (≈ 1.63 µM)	3.12 µg/mL (≈ 3.26 µM)	Weak	~100 µg/mL (≈ 104 µM)	CO[C@@H]1C[C@H](C[C@@H](C)[C@@H]2CC(=O)[C@H](C)/C=C(\C)[C@@H](O)[C@@H](OC)C(=O)[C@H](C)C[C@H](C)/C=C/C=C/C=C(\C)[C@H](N(O)C(N)=O)C[C@@H]3CC[C@@H](C)[C@@](O)(O3)C(=O)C(=O)N3CCCC[C@H]3C(=O)O2)CC[C@H]1O	379 nM
1.56 µg/mL (≈ 1.59 µM)	~100 µg/mL (≈ 102 µM)	12.5 µg/mL (≈ 12.8 µM)	Weak	Weak	~100 µg/mL (≈ 102 µM)	3.12 µg/mL (≈ 3.18 µM)	0.78 µg/mL (≈ 0.796 µM)	1.56 µg/mL (≈ 1.59 µM)	Weak		CO[C@@H]1C[C@H](C[C@@H](C)[C@@H]2CC(=O)[C@H](C)/C=C(\C)[C@@H](O)[C@@H](OC)C(=O)[C@H](C)C[C@H](C)/C=C/C=C/C=C(\C)[C@H](c3ccc(C)s3)C[C@@H]3CC[C@@H](C)[C@@](O)(O3)C(=O)C(=O)N3CCCC[C@H]3C(=O)O2)CC[C@H]1O	221 nM
1.56 µg/mL (≈ 1.54 µM)	~100 µg/mL (≈ 98.5 µM)	3.12 µg/mL (≈ 3.07 µM)	Weak	Weak	~100 µg/mL (≈ 98.5 µM)	1.56 µg/mL (≈ 1.54 µM)	0.78 µg/mL (≈ 0.768 µM)	0.78 µg/mL (≈ 0.768 µM)	Weak		CO[C@@H]1C[C@H](C[C@@H](C)[C@@H]2CC(=O)[C@H](C)/C=C(\C)[C@@H](O)[C@@H](OC)C(=O)[C@H](C)C[C@H](C)/C=C/C=C/C=C(\C)[C@H](N(O)C(=O)OCC(C)C)C[C@@H]3CC[C@@H](C)[C@@](O)(O3)C(=O)C(=O)N3CCCC[C@H]3C(=O)O2)CC[C@H]1O	196 nM
1.56 µg/mL (≈ 1.54 µM)	~100 µg/mL (≈ 98.5 µM)	1.56 µg/mL (≈ 1.54 µM)	Weak	Weak	~100 µg/mL (≈ 98.5 µM)	1.56 µg/mL (≈ 1.54 µM)	0.78 µg/mL (≈ 0.768 µM)	0.78 µg/mL (≈ 0.768 µM)	Weak		CCCCOC(=O)N(O)[C@@H]1C[C@@H]2CC[C@@H](C)[C@@](O)(O2)C(=O)C(=O)N2CCCC[C@H]2C(=O)O[C@H]([C@H](C)C[C@@H]2CC[C@@H](O)[C@H](OC)C2)CC(=O)[C@H](C)/C=C(\C)[C@@H](O)[C@@H](OC)C(=O)[C@H](C)C[C@H](C)/C=C/C=C/C=C/1C	83 nM
1.56 µg/mL (≈ 1.56 µM)	~100 µg/mL (≈ 99.9 µM)	3.12 µg/mL (≈ 3.12 µM)	Weak	Weak	~100 µg/mL (≈ 99.9 µM)	1.56 µg/mL (≈ 1.56 µM)	1.56 µg/mL (≈ 1.56 µM)	0.78 µg/mL (≈ 0.779 µM)	Weak		CCCOC(=O)N(O)[C@@H]1C[C@@H]2CC[C@@H](C)[C@@](O)(O2)C(=O)C(=O)N2CCCC[C@H]2C(=O)O[C@H]([C@H](C)C[C@@H]2CC[C@@H](O)[C@H](OC)C2)CC(=O)[C@H](C)/C=C(\C)[C@@H](O)[C@@H](OC)C(=O)[C@H](C)C[C@H](C)/C=C/C=C/C=C/1C	288 nM
0.78 µg/mL (≈ 0.753 µM)	~100 µg/mL (≈ 96.6 µM)	3.12 µg/mL (≈ 3.01 µM)	Weak	Weak	~100 µg/mL (≈ 96.6 µM)	1.56 µg/mL (≈ 1.51 µM)	0.78 µg/mL (≈ 0.753 µM)	0.78 µg/mL (≈ 0.753 µM)	Weak		CO[C@@H]1C[C@H](C[C@@H](C)[C@@H]2CC(=O)[C@H](C)/C=C(\C)[C@@H](O)[C@@H](OC)C(=O)[C@H](C)C[C@H](C)/C=C/C=C/C=C(\C)[C@H](N(O)C(=O)Oc3ccccc3)C[C@@H]3CC[C@@H](C)[C@@](O)(O3)C(=O)C(=O)N3CCCC[C@H]3C(=O)O2)CC[C@H]1O	170 nM
